Results as given in patent US9018219B2, “Fused aminodihydropyrimidine derivative” (Shionogi & Co., Ltd., priority 2010, dated 2015).
pIC50: −log10 of the molar value.

Legend:
[1] = target: T1, Recombinant human BACE-1 (Homo sapiens, UniProt P56817); experiment: Assay of BACE1 inhibitory activity; assay type: biochemical; conditions: Recombinant human BACE1 7.4 nmol/L, substrate peptide 18 nmol/L, pH 5.0, 30° C. for 3 hours; read-out: IC50 (50% inhibitory concentration against the enzymatic activity)
T1 construct: purchased R&D Systems
Method: 48.5 μL of substrate peptide solution (Biotin-XSEVNLDAEFRHDSGC-Eu: X=ε-amino-n-capronic acid, Eu=Europium cryptate) was added to each well of 96-hole half-area plate (a black plate: Costar), and after addition of 0.5 μl of the compound of the present invention (N,N′-dimethylformamide solution) and 1 μl of Recombinant human BACE-1 (R&D Systems), the reaction mixture was incubated at 30° C. for 3 hours. The substrate peptide was synthesized by reacting Cryptate TBPCOOH mono SMP (CIS bio international) with Biotin-XSEVNLDAEFRHDSGC (Peptide Institute, Inc.). The final concentrations of the substrate peptide and Recombinant human BACE1 were adjusted to 18 nmol/L and 7.4 nmol/L, respectively, and the reaction was performed in sodium acetate buffer (50 mmol/L sodium acetate, pH 5.0, 0.008% Triton X-100). After the incubation for reaction, 50 μl of 8.0 μg/ml Streptavidin-XL665 (CIS bio international) dissolved in phosphate buffer (150 mmol/L K2HPO4—KH2PO4, pH 7.0, 0.008% Triton X-100, 0.8 mol/L KF) was added to each well and left stand at 30° C. for 1 hour. After then, fluorescence intensity was measured (excitation wavelength: 320 nm, measuring wavelength: 620 nm and 665 nm) using Wallac 1420 multilabel counter (Perkin Elmer life sciences). Enzymatic activity was determined from counting ratio of each wavelength (10,000×Count 665/Count 620) and 50% inhibitory concentration against the enzymatic activity (IC50) was calculated.

[2] = target: T2, CYP1A2 (Homo sapiens, UniProt P05177); experiment: CYP inhibition test (CYP1A2); assay type: in vitro ADME; conditions: pooled human hepatic microsome 0.2 mg protein/mL, 15 minutes, 37° C.; read-out: IC50 CYP1A2 (7-ethoxyresorufin O-deethylation)
T2 construct: enzyme, pooled human hepatic microsome 0.2 mg protein/mL; from tissue
T2 sequence (P05177 1-516): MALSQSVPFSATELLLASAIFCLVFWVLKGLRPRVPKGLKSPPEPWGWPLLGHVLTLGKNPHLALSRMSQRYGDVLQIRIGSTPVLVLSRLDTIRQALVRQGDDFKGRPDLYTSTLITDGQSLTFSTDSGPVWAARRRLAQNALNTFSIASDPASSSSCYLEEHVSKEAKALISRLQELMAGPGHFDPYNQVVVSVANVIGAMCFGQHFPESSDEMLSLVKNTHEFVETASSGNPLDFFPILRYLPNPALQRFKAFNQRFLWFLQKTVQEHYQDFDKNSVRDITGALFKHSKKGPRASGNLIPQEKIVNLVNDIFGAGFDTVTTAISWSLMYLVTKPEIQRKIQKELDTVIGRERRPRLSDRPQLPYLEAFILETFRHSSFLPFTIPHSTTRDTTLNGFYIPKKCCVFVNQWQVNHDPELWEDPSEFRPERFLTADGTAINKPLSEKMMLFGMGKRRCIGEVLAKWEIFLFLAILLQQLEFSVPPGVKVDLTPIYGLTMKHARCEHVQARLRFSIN
Source text: (§1) Using commercially available pooled human hepatic microsome, and employing, as markers, 7-ethoxyresorufin O-deethylation (CYP1A2), tolbutamide methyl-hydroxylation (CYP2C9), mephenyloin 4′-hydroxylation (CYP2C19), dextromethorphan O-demethylation (CYP2D6), and terfenedine hydroxylation (CYP3A4) as typical substrate metabolism reactions of human main five CYP enzyme forms (CYP1A2, 2C9, 2C19, 2D6, 3A4), an inhibitory degree of each metabolite production amount by a compound of the present invention was assessed. […] After the centrifugation at 3000 rpm for 15 minutes, resorufin (CYP1A2 metabolite) in the supernatant was quantified by a multi-label counter and hydroxytolbutamide (CYP2C9 metabolite), 4′-hydroxymephenyloin (CYP2C19 metabolite), dextrorphan (CYP2D6 metabolite), and terfenadine alcohol metabolite (CYP3A4 metabolite) were quantified by LC/MS/MS. Addition of only DMSO being a solvent dissolving a compound to a reaction system was adopted as a control (100%), remaining activity (%) was calculated and IC50 was calculated by reverse presumption by a logistic model using a concentration and an inhibition rate.

[3] = target: CYP3A4 (Homo sapiens, UniProt P08684); experiment: CYP inhibition test (CYP3A4); assay type: in vitro ADME; parameters: enzyme, pooled human hepatic microsome 0.2 mg protein/mL; from tissue; conditions: pooled human hepatic microsome 0.2 mg protein/mL, 15 minutes, 37° C.; read-out: IC50 CYP3A4 (terfenedine hydroxylation)
Source text: as §1

Sequence of CYP3A4 (P08684 whole entry): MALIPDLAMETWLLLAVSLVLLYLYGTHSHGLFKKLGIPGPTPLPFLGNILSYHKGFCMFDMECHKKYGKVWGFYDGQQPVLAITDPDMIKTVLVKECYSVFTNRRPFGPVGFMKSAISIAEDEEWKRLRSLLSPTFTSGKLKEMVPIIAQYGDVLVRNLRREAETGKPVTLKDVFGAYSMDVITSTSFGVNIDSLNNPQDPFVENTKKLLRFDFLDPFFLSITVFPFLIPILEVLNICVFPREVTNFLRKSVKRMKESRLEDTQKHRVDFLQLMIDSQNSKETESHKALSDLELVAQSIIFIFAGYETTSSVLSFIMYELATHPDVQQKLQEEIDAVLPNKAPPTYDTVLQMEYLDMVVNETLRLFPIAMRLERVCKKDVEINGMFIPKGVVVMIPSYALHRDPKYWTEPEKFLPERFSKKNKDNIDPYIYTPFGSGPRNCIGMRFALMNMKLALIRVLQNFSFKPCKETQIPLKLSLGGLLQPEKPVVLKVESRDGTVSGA
T1 sequence (P56817 46-501): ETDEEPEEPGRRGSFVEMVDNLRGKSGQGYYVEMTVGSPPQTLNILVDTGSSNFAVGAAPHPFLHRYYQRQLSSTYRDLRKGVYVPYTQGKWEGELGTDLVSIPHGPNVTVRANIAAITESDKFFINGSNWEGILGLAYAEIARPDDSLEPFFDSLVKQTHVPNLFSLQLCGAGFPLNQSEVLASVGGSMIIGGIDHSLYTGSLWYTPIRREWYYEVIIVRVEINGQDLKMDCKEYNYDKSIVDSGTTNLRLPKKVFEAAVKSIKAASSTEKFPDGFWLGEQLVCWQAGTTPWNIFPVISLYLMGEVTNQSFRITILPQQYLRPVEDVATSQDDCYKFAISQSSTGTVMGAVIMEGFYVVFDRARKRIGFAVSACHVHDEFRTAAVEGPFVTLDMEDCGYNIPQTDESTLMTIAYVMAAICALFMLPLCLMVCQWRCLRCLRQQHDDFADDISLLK

- pIC50 [1]: ≥ 6.00
- pIC50 [2]: < 4.70
- pIC50 [3]: < 4.70
Structure (SMILES): C[C@@]1(c2cc(-c3cccnc3F)ccc2F)Cc2nccn2C(N)=N1 [Compound I-2]
